Measurements: US6653327B2, “Cross-regulin composition of tumeric-derived tetrahydrocurcuminoids for skin lightening and protection against UVB rays” (Sabinsa Corporation, priority 1999, dated 2003)

Columns and labels:
[1] = test system: UVB-induced sunburn cells and p21 protein in epidermis; assay: UVB-induced formation of sunburn cells and p21 protein levels in epidermis; assay type: in vivo, SKH-1 mice; conditions: 8 hours after UVB
Experimental: Female Sencar mice (5 mice per group) were treated topically with 100 ul acetone or inhibitor in acetone at 5 min before a single dose of UVB (60 mJ/cm2) irradiation. The mice were killed 8 hours after UVB irradiation, and the skin biopsies were evaluated for sunburn cells and p21 protein.

[2] = test system: TPA-induced ear edema; assay: TPA-induced ear edema in mice (ear punch weight); assay type: in vivo, Female CF-1 mice; conditions: 5 hours; for Wg/punch: mean SE
Experimental: Applicants have postulated that the crossregulin composition of the invention is an optimal composition for protecting and preserving healthy living cells and for preventing cytoskeletons of the healthy living cells from being damaged by TPA and TPA-like tumor promoters. In an experiment conducted in vivo, the ear skin of Female CF-1 mice was treated with either 20 microliters acetone, TPA in acetone or TPA with Tetrahydrocurcuminoids of the invention [THC1], known Tetrahydrocurcuminoids [THC2] and known pure (synthetic) Tetrahydrocurcumin [THC3].
Five hours later the mice were sacrificed and ear punches were weighted (the higher the weight, score the more severe the inflammation of the treated ear-skin). Based on the weight score of the ear punches, the percent of inflammation inhibition was calculated. Protection against inflammation in decreasing order was furnished by THC1 of the invention, followed by THC2 of the prior art, and finally followed by THC3. […] Prior art, as exemplified by the research data, cannot accomplish inhibition of the TPA induced ear edema above 80%. More than 80% inhibition of TPA-induced ear edema is necessary to prevent crosslinking of proteins which could trigger skin cancer. Therefore crossregulin action is not an inherent part of just any composition of THCs, but it is a specific composition that affords inhibition of the TPA mechanism by more than 80%.

[3] = 10 uM topical 5 min before UVB (60 mJ/cm2)
[4] = 20 uM topical 5 min before UVB (60 mJ/cm2)

SMILES	% p21 [1, 3]	Number of positive cells per 1 cm slide (p21) [1, 3]	Number of sunburn cells per 1 cm slide [1, 3]	Percent Of Sunburn cells [1, 3]	% p21 [1, 4]	Number of positive cells per 1 cm slide (p21) [1, 4]	Number of sunburn cells per 1 cm slide [1, 4]	Percent Of Sunburn cells [1, 4]	Wg/punch ([2]; dose 0.36 mg topical with TPA (1 nmol) in acetone on both ears)	% inhibition of TPA-induced ear edema ([2]; dose 0.36 mg topical with TPA (1 nmol))	Wg/punch ([2]; dose 0.12 topical with TPA (1 nmol) in acetone on both ears)	% inhibition of TPA-induced ear edema ([2]; dose 0.12 topical with TPA (1 nmol))
O=C(CC(=O)c1ccccc1)c1ccccc1 [DBM, dibenzoylmethane]	1.2%	33.5 ± 7.49	13.2 ± 5.35	1.2	2.2%	60.6 ± 12.9	8.6 ± 1.78	0.9	–	–	–	–
COc1cc(CCC(=O)CC(=O)CCc2ccc(O)c(OC)c2)ccc1O [THC3, tetrahydrocurcumin]	–	–	–	–	–	–	–	–	8.1 ± 0.3	77.2%	7.8 ± 0.3	81.0%
